The NIST ThermoML archive (doi:10.1016/j.jct.2012.11.032)

Assay: xn = mol fraction of the nth substance listed
Conditions: 101 kPa, Liquid; for mass density: Vibrating tube method; for speed of sound: Sing-around technique in a fixed-path interferometer

CCCCCCCCCCCC[n+]1ccn(C)c1.[Cl-] [1-dodecyl-3-methylimidazolium chloride] + O
Conditions | mass density [kg/m3] | speed of sound [m/s]
288 K, x1 = 0.000208 | 999.122 | –
288 K, x1 = 0.000234 | 999.12 | –
288 K, x1 = 0.000248 | 999.133 | –
288 K, x1 = 0.000273 | 999.127 | –
288 K, x1 = 0.000286 | 999.125 | –
288 K, x1 = 0.000302 | 999.113 | –
288 K, x1 = 0.000319 | 999.128 | –
288 K, x1 = 0.000341 | 999.116 | –
288 K, x1 = 0.000384 | 999.108 | –
288 K, x1 = 0.000407 | 999.096 | –
288 K, x1 = 0.000428 | 999.082 | –
293 K, x1 = 2.7e-05 | 998.213 | –
293 K, x1 = 3e-05 | 998.232 | –
293 K, x1 = 4.8e-05 | 998.233 | –
293 K, x1 = 7.4e-05 | 998.224 | –
293 K, x1 = 9.4e-05 | 998.217 | –
293 K, x1 = 0.000109 | 998.222 | –
293 K, x1 = 0.000129 | 998.227 | –
293 K, x1 = 0.000145 | 998.219 | –
293 K, x1 = 0.000163 | 998.236 | –
293 K, x1 = 0.000181 | 998.221 | –
293 K, x1 = 0.000208 | 998.22 | –
293 K, x1 = 0.000234 | 998.218 | –
293 K, x1 = 0.000248 | 998.227 | –
293 K, x1 = 0.000273 | 998.218 | –
293 K, x1 = 0.000286 | 998.214 | –
293 K, x1 = 0.000302 | 998.2 | –
293 K, x1 = 0.000319 | 998.213 | –
293 K, x1 = 0.000341 | 998.199 | –
293 K, x1 = 0.000384 | 998.191 | –
293 K, x1 = 0.000407 | 998.175 | –
293 K, x1 = 0.000428 | 998.16 | –
293 K, x1 = 0.0027 | – | 1482.9
293 K, x1 = 0.003 | – | 1483
293 K, x1 = 0.0048 | – | 1483.3
293 K, x1 = 0.0074 | – | 1483.7
293 K, x1 = 0.0094 | – | 1484
293 K, x1 = 0.0109 | – | 1484.2
293 K, x1 = 0.0129 | – | 1484.5
293 K, x1 = 0.0145 | – | 1484.7
293 K, x1 = 0.0163 | – | 1485
293 K, x1 = 0.0181 | – | 1485.2
293 K, x1 = 0.0208 | – | 1485.6
293 K, x1 = 0.0234 | – | 1485.9
293 K, x1 = 0.0248 | – | 1486
293 K, x1 = 0.0273 | – | 1486.3
293 K, x1 = 0.0286 | – | 1486.4
293 K, x1 = 0.0302 | – | 1486.5
293 K, x1 = 0.0319 | – | 1486.6
293 K, x1 = 0.0341 | – | 1486.7
293 K, x1 = 0.0384 | – | 1486.7
293 K, x1 = 0.0407 | – | 1486.9
293 K, x1 = 0.0428 | – | 1486.9
298 K, x1 = 0.0027 | – | 1497.1
298 K, x1 = 0.003 | – | 1497.2
298 K, x1 = 0.0048 | – | 1497.4
298 K, x1 = 0.0074 | – | 1497.8
298 K, x1 = 0.0094 | – | 1498.1
298 K, x1 = 0.0109 | – | 1498.3
298 K, x1 = 0.0129 | – | 1498.5
298 K, x1 = 0.0145 | – | 1498.7
298 K, x1 = 0.0163 | – | 1499
298 K, x1 = 0.0181 | – | 1499.2
298 K, x1 = 0.0208 | – | 1499.6
298 K, x1 = 0.0234 | – | 1499.8
298 K, x1 = 0.0248 | – | 1500
298 K, x1 = 0.0273 | – | 1500.2
298 K, x1 = 0.0286 | – | 1500.3
298 K, x1 = 0.0302 | – | 1500.3
298 K, x1 = 0.0319 | – | 1500.5
298 K, x1 = 0.0341 | – | 1500.5
298 K, x1 = 0.0384 | – | 1500.5
298 K, x1 = 0.0407 | – | 1500.7
